Reference: the METLIN SMRT retention time set (Domingo-Almenara et al. 2019)
Each block holds one compound with its values, some of them ahead of it.

Assay: gradient 5% acetonitrile 3 min, to 50% in 2 min, to 85% in 15 min, held 3 min, 100 µL/min
Settings: column: Zorbax Extend-C18 2.1 x 50 mm; eluents: water / acetonitrile, 0.1% formic acid
How it was run: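 Using water and acetonitrile that each contained 0.1% formic acid, mixtures of ~100 pure standards were separated at 100 μL/min on a Zorbax Extend-C18 column (2.1 × 50 mm, 1.8 μm). The HPLC fed a quadrupole time-of-flight mass spectrometer working in positive and negative ionization mode, with dead and dwell volumes of 40 μL and 900 μL. Data were acquired over 3 months. Retention time was read from computationally picked adduct peaks after manual inspection of each.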

Compound: O=C(O)CCC(=O)Nc1sc2c(c1C(=O)Nc1ccccc1)CCC2
RP-LC retention time: 902 s

Compound: CCCn1cc(CCNC(=O)Nc2ccc(F)c(Cl)c2)c2cccnc21
RP-LC retention time: 835 s

Compound: Cc1ccc(C)c(NC(=O)N2CCC3(CC2)NC(=O)c2ccccc2N3C)c1
RP-LC retention time: 763 s

Compound: CCOC(=O)CNC(=O)N1CC(CC)Oc2ccc(C)cc21 (configuration not stated)
RP-LC retention time: 935 s

Compound: CN(CC(=O)N1CCN(c2ccccc2F)CC1)S(=O)(=O)c1c[nH]c(C(=O)N2CCCC2)c1
RP-LC retention time: 752 s

Compound: CCn1cccc1-c1nc(C)c(C(=O)N2CCN(c3cccc(C)c3)C(C)C2)s1 (configuration not stated)
RP-LC retention time: 1190 s

Compound: CCn1c(=O)c(C(=O)NCCCc2ccccc2)nc2cccnc21
RP-LC retention time: 586 s

Compound: O=C(NCc1ccccc1)C1CC(=O)N(c2n[nH]c3cccc(F)c23)C1 (configuration not stated)
RP-LC retention time: 684 s

Compound: CC1CCC(NC(=O)C2c3ccccc3C(=O)N2CCCN2CCOCC2)CC1 (configuration not stated)
RP-LC retention time: 640 s

Compound: CN(C)C(=O)c1nc2ccccn2c1-c1ccc(Cl)cc1
RP-LC retention time: 674 s

Compound: COc1ccc(-c2ccnc3nc(CCc4ccccc4)nn23)cc1OC
RP-LC retention time: 879 s

Compound: Cn1nccc1C(=O)NCc1ccc(-c2nc(-c3cccs3)no2)s1
RP-LC retention time: 858 s

Compound: Cc1nc(-c2csc(S(=O)(=O)N3CCC(C(=O)NC4CC4)CC3)c2)no1
RP-LC retention time: 723 s

Compound: Cc1ccc(C(=O)Nc2ccc(N3CCN(c4ccccc4)C3=O)nc2)cc1C
RP-LC retention time: 1070 s

Compound: COc1ccc(C(=O)NCCc2c[nH]c3ccc(Cl)cc23)cc1OC
RP-LC retention time: 817 s

Compound: Cc1ccc(C)c(NC(=O)Cn2cccc2-c2nc(-c3ccc4c(c3)OCO4)no2)c1
RP-LC retention time: 1050 s

Compound: Cc1ccc(-c2nnc(-c3ccc(Br)cc3)o2)cc1S(=O)(=O)N(C)C
RP-LC retention time: 1090 s

Compound: O=C(NCc1cccc(C(F)(F)F)c1)C1CCN(c2nnc(-c3ccccc3)o2)CC1
RP-LC retention time: 896 s

Compound: Cc1ccc(CNC(=O)C2CCCN(C(=O)c3cc(-c4cccnc4)n[nH]3)C2)o1 (configuration not stated)
RP-LC retention time: 611 s

The remaining lines, values ahead:

RP-LC retention time: 885 s
Compound: O=S(=O)(c1ccc(F)cc1)N1CCC(c2noc(C3CC3)n2)C1 (configuration not stated)

RP-LC retention time: 584 s
Compound: O=C(CCCn1c(=O)c2cccn2c2ccccc21)NCCCN1CCC(N2CCCCC2)CC1

RP-LC retention time: 1120 s
Compound: CCc1ccc(-c2noc(CN3C(=O)COc4ccccc43)n2)cc1

RP-LC retention time: 1190 s
Compound: CCOc1nc2ccccc2nc1N1CCCC(C(=O)Nc2ccc(F)cc2)C1 (configuration not stated)

RP-LC retention time: 680 s
Compound: Cn1cc(C(=O)OCC2CCN(CCNS(C)(=O)=O)CC2)c2ccccc21

RP-LC retention time: 906 s
Compound: CC(C)CCNCC(O)Cn1c2ccc(Br)cc2c2cc(Br)ccc21 (configuration not stated)

RP-LC retention time: 640 s
Compound: COc1ccc2nc(NC3=NCN(Cc4ccco4)CN3)nc(C)c2c1

RP-LC retention time: 720 s
Compound: O=C(c1c(F)cccc1F)N1CCN=C1N1CCN(c2ccccc2F)CC1

RP-LC retention time: 718 s
Compound: COCCN1CCC2(CC1)CN(Cc1cc(C)ccc1C)Cc1ccccc1O2

RP-LC retention time: 601 s
Compound: O=C([C@@H]1C[C@H](Oc2cccnc2)CN1C(=O)Cn1c(=O)oc2ccccc21)N1CCCC1

RP-LC retention time: 710 s
Compound: Cc1ccc(-c2cn3ccccc3n2)cc1NS(=O)(=O)c1ccc(Br)cc1

RP-LC retention time: 723 s
Compound: CCOC(=O)c1[nH]c(C)c(CCC(=O)N2CCCC(C(=O)NC(C)C)C2)c1C (configuration not stated)

RP-LC retention time: 1090 s
Compound: Cc1ccccc1-c1noc(Cc2nnc(-c3cc(F)cc(F)c3)o2)n1

RP-LC retention time: 585 s
Compound: CCN1CCC2(CC1)CN(Cc1cccc(Cl)c1)Cc1ccccc1O2

RP-LC retention time: 737 s
Compound: O=C(Nc1ccc(N2CCN(Cc3ccccc3)C2=O)nc1)C1CCC1

RP-LC retention time: 922 s
Compound: COc1ccc(NC(=O)c2c(N3CCCC3=O)c3cc(F)ccc3n2C)cc1

RP-LC retention time: 708 s
Compound: Cc1nn(C)c(C)c1S(=O)(=O)N1CCN(C(=O)CCc2c[nH]c3ccccc23)CC1

RP-LC retention time: 566 s
Compound: CCNC(=O)Nc1ccc2c(c1)CN(Cc1scnc1C)CCO2
